Assay results reported in PMC4186475 (Influenza and Other Respiratory Viruses, 2013).

Assays:
[1] = system: neuraminidase (NA) of influenza B viruses; type: biochemical, influenza B virus
[2] = system: neuraminidase (NA) of influenza A (H3N2) viruses; type: biochemical, influenza A (H3N2) virus

Compound: CCOC(=O)C1=C[C@@H](OC(CC)CC)[C@H](NC(C)=O)[C@@H](N)C1 [Oseltamivir, Oseltamivir (carboxylate)]
- Fold change in IC50 of test viruses, Approach #3 [1]: 6 (1) fold
- fold change in IC50 of outliers [1]: 53·02 (6) fold

Compound: CC(=O)N[C@H]1[C@H]([C@H](O)[C@H](O)CO)OC(C(=O)O)=C[C@@H]1N=C(N)N [Zanamivir, zanamivir]
- Fold change in IC50 of test viruses, Approach #1 [2]: 132 (1) fold
- Fold change in IC50 of test viruses, Approach #2 [2]: 132 (1) fold
- Fold change in IC50 of test viruses, Approach #3 [2]: 91 (1) fold
- fold change in IC50 of outliers [2]: 23·75 (91) fold
- Fold change in IC50 of test viruses, Approach #3 [1]: 5 (1) fold
- fold change in IC50 of outliers [1]: 5·11 (5) fold
